The source of these data is patent publication US9045505B2, “Nitric oxide donors” (University of Otago, priority 2006, dated 2015).

For one assay, the system named is rat thoracic aorta. The assay is described as follows: Relaxation of pre-contracted rat thoracic aorta (myograph). The conditions noted are these: for EC50: pre-contracted rat thoracic aorta, read-out: EC50 blood vessel relaxation. As for the experimental part: FIG. 16 is a series of graphs showing the vasodilatory and tissue protective effects of MitoSNAP. (a) Dose-response curves for the effect of MitoSNAP and related compounds on blood vessel relaxation. The effects of intact or decomposed MitoSNAP and SNAP on pre-contracted rat thoracic aorta mounted in a myograph were determined Data represent means±sem. For MitoSNAP n=8 from experiments on two independent rat aorta preparations. For decomposed MitoSNAP and SNAP experiments the data (n=4) are from one aorta preparation. (b) EC50 for the effect of MitoSNAP and SNAP on blood vessel relaxation. The EC50 values were determined from experiments shown in (a) above. ***p<0.001 by Student's unpaired t-test. (c & d) MitoSNAP protects against I/R injury in Langendorff-perfused mouse hearts. Hearts from C57BL6 mice were Langendorff perfused and subjected to 25 min global normothermic ischemia followed by 1 h of reperfusion. MitoSNAP or MitoNAP (100 nM final), or vehicle carrier, was added via an infusion port above the aortic cannula during reperfusion. Hearts were then stained with 2,3,5-triphenyltetrazolium chloride (TTC) to visualize infarct. (c) Protection of heart function by MitoSNAP during I/R injury. Left ventricular contractile function was recorded throughout the I/R protocol.
Sprague-Dawley rats (male 250-350 g) were anesthetized by intraperitoneal injection of ketamine and xylazine (100 and 16 mg/kg, respectively) and thoracic aortas were excized and placed in Krebs-Henseleit buffer (pH 7.3) at 37° C. […] The concentrations of MitoSNAP and SNAP were calculated using ε=950 M^−1.cm^−1 and 1168 M^−1.cm^−1 at 340-344 nm respectively in PBS supplemented with 10 μM DTPA.
The uptake of MitoSNAP into mitochondria within vascular tissue and the subsequent NO^• release may make MitoSNAP a potent vasodilator. This was evaluated by determining whether MitoSNAP could relax the smooth muscle in blood vessel walls. […]

A further assay concerns liver mitochondria. Briefly: S-nitrosation of mitochondrial protein thiols (chemiluminescence SNO assay). Format: biochemical, rat. The conditions noted are these: for S-nitrosation of mitochondrial proteins: 2.5 min incubation, SNAP even at 50 μM. As for the experimental part: FIG. 11 is a series of graphs showing S-nitrosation of mitochondrial thiols by MitoSNAP. (a) Time course of S-nitrosation of mitochondrial proteins by MitoSNAP. Liver mitochondria (1 mg protein) were incubated in 1 ml KCl buffer supplemented with rotenone and succinate in the presence of 5 μM MitoSNAP. At various times mitochondria were treated with 10 mM N-ethylmaleimide (NEM), isolated by centrifugation and the S-nitrosothiol content assessed. Data are of a typical experiment showing means±range of duplicate samples for each time point, each measured in duplicate. The experiment was repeated twice. (b) S-nitrosation of mitochondrial proteins by different concentrations of MitoSNAP and SNAP. Aliquots of liver mitochondria were incubated with the indicated concentrations of MitoSNAP or SNAP for […] in the presence or absence of 500 nM FCCP and then assessed for S-nitrosothiol content as in (a). For the +NEM sample, 10 mM NEM was added to the mitochondria and 1 min later 5 μM MitoSNAP was added and incubated for a further 2.5 min. Data are of a typical experiment showing means±range of duplicate samples for each time point, each measured in duplicate. The experiment was repeated twice. (c) S-nitrosation of cellular protein thiols by MitoSNAP. C2C12 cells were preincubated for 5 min in 2 ml cell culture medium containing either 20 μM FCCP or DMSO carrier, then 5 μM MitoSNAP or SNAP was added. After further incubation for 5 min at 37° C. in the dark, the medium was removed and the content of S-nitrosated proteins was measured. Data are means±range of the duplicate determinations. […] (d) S-nitrosation of a mitochondria-enriched cell subfraction. C2C12 cells were preincubated for 5 min in cell culture medium containing either 20 μM FCCP or dimethylsulfoxide (DMSO) carrier, then 5 μM MitoSNAP was added. After 5 min at 37° C. in the dark, the medium was removed and the cells were processed to isolate a mitochondria-enriched fraction and S-nitrosated protein was then determined Data are mean±sem of triplicate determinations (+MitoSNO1), or mean±range of duplicate determinations (+FCCP). (e & f) Visualisation of S-nitrosated mitochondrial proteins by copper/ascorbate-dependent labelling of thiols with a Cy3 fluorophore. Liver (e) or heart (f) mitochondria (1 mg protein) were incubated in 1 ml KCl buffer supplemented with rotenone and succinate in the presence of no additions, 10 μM MitoSNAP or 500 μM diamide for 5 min. S-nitrosated thiols were then selectively tagged with Cy3 maleimide and protein (10 μg) was then separated on a 12.5% SDS PAGE gel which was stained with coomassie blue and scanned for Cy3 fluorescence. The Cy3 fluorescence (SNO) and coomassie staining (coomassie) of each gel is shown.
FIG. 13 is a trace and graph showing limited S-nitrosation of mitochondria by DetaNONOate. […] Where indicated 500 μM DetaNONOate was added and the concentration of NO^• was measured over time, before 5 μM OxyHb was added. […] Then protein pellets were resuspended and processed for analysis of protein S-nitrosothiols. Control incubations in the presence of 10 mM NEM were also carried out. Data are means±range of two independent experiments each being the average of four mitochondrial incubations.
Nitrite, nitric oxide and S-nitrosothiol measurements. Nitrite was analyzed by the Griess assay (Molecular Probes). Nitric oxide was measured using an NO^• electrode (World Precision Instruments Ltd, UK) connected to an Apollo 4000 Free Radical Analyser. The electrode was inserted into a stirred, sealed 3 ml chamber with a Clark type O2 electrode (Rank Brothers, UK) built into its base and was thermostatted at 37° C. The NO^• electrode was calibrated by adding SNAP to argon-purged, saturated CuCl. OxyHb was prepared by reduction of bovine methemoglobin with sodium dithionite.

Structures are written as SMILES.

In the case of `CC(=O)NC(C(=O)NCCCCC[P+](c1ccccc1)(c1ccccc1)c1ccccc1)C(C)(C)SN=O.CS(=O)(=O)[O-]` (stereo not drawn) [MitoSNAP, [5-(2-acetylamino-3-methyl-3-nitrosothio-butyrylamino)-penty1]-triphenylphosphonium methanesulfonate], the EC50 (as a rule, the concentration at which the effect is half-maximal) with rat thoracic aorta is 4.5 nM. The “vasodilator effect after degradation of the SNO moiety” value with rat thoracic aorta (pretreated (light) to degrade SNO) was “ineffective”. For the same molecule, in the assay with liver mitochondria (5 μM), the “maximum S-nitrosation as share of the total number of protein thiols available” value was around 1% and the “maximum extent of mitochondrial protein S-nitrosation” value was around 500 pmol SNO/mg protein. For the same molecule, in the assay on liver mitochondria (5 μM, 5 min, mean±SEM of 4), the “S-nitrosated proteins after sulfosalicylic acid lysis and precipitation (control experiment)” value is reported as 359±89 pmol SNO/mg protein. In the assay with liver mitochondria (5 μM, liver mitochondria), the “time of peak S-nitrosation of mitochondrial proteins” value fell in the range of 2 to 3 min. Further, in the assay with liver mitochondria, the “S-nitrosation of mitochondrial proteins” value is reported as “extensive, concentration-dependent S-nitrosation”.
In the case of `CC(=O)NC(C(=O)O)C(C)(C)SN=O` (racemic) [SNAP, S-nitroso-N-acetyl-DL-penicillamine, reference compound], in the assay on rat thoracic aorta, the EC50 is 19.5 nM. Also, the “S-nitrosation of mitochondrial proteins” value in the assay with liver mitochondria is “negligible S-nitrosation”.
